Measurements from patent US9714936B2, “Method for evaluating cosmetic” (SHISEIDO COMPANY, LTD., priority 2011, dated 2017).

Tests used:
[1] = system: J-TEC Human Reconstituted Epidermis Model (stratum corneum sheet); test: Change in stratum corneum sheet thickness on wetting and drying (Example 6)
Description: (§1) The thickness of a J-TEC Human Reconstituted Epidermis Model (stratum corneum sheet) before the experiment was measured with a caliper (Caliper No. 227-201 by Mitsutoyo Corp.) (one location each) (A). The stratum corneum sheet was further wetted for 30 minutes in a 10% glycerin aqueous solution, an aqueous solution of liquid paraffin (10%), glycerin (10%), POE(60) hydrogenated castor oil (10%), carboxyvinyl polymer (product name: CARBOPOL 981, Lubrizol Advanced Materials, Inc.) (0.2%) and KOH (0.1%) (liquid paraffin+glycerin+thickener aqueous solution), and in 100% ethanol, and immediately upon completion of wetting, the thickness of the stratum corneum sheet was measured with a caliper in the same manner (B).
(§2) It was further dried for 18 hours under conditions of 34° C., 60% humidity and the stratum corneum sheet was measured (C). Using theses results, the thickness change rate (%) of the stratum corneum sheet was measured based on the following formula 1: Thickness change rate (%)=(B−A)×100/A−(C−B)×100/C

[2] = system: J-TEC Human Reconstituted Epidermis Model (stratum corneum sheet); test: Visual examination of stratum corneum sheet transparency after wetting and drying (Example 6); settings: visually examined after wetting 30 minutes and drying 18 hours at 34° C., 60% humidity
Description: as §1, §2

[3] = system: freeze-dried J-TEC Human Reconstituted Epidermis model (stratum corneum sheet); test: Transparency and transmittance of freeze-dried stratum corneum sheet after wetting and drying (FIG. 7); settings: wetted 30 minutes, dried 18 hours at 34° C., 60% humidity
Description: The freeze-dried stratum corneum sheet was wetted for 30 minutes in a 10% glycerin aqueous solution, in an aqueous solution of liquid paraffin (10%), glycerin (10%), POE(60) hydrogenated castor oil (10%), carboxyvinyl polymer (product name: CARBOPOL 981 by Lubrizol Advanced Materials, Inc.) (0.2%) and KOH (0.1%) (liquid paraffin+glycerin+thickener aqueous solution), and in 100% ethanol, and after removing the liquid, drying was performed for 18 hours in an atmosphere at 34° C., 60% humidity, and the sheet was photographed (FIG. 7). […] Since higher transparency of the stratum corneum can be considered a more excellent skin condition, the state of improvement in skin can be evaluated based on the thickness change in the stratum corneum cells or cell layer from moistening in a liquid until drying.

SMILES: CCO [100% Ethanol, ethanol]
- Thickness change rate (%) ([1]; (B−A)×100/A−(C−B)×100/C, wetted 30 minutes, dried 18 hours at 34° C., 60% humidity, caliper): 3.9%
- change in thickness of stratum corneum sheet when moistened (FIG. 6) ([1]; after wetting with the liquid): no change in thickness
- Transparency [2]: Poor
- transparency of freeze-dried stratum corneum sheet moistened and then dried (FIG. 7) [3]: low
- stratum corneum transmittance of freeze-dried sheet moistened and then dried (FIG. 7) ([3]; HR100 spectrophotometer): low
